IC50 data for 13 compounds are collected here from US20080306102A1, “NOVEL SPIROOXYINDOLE COMPOUNDS AND DRUGS CONTAINING SAME” (KOWA CO., LTD., priority 2007, published 2008).

pIC50: −log10 of the molar value. Where two headings read alike, the source gives them in different places.

In one experiment the target is T1, human 11β-HSD1 (Homo sapiens, UniProt P28845).
T1 construct: expressed in transfected cells; sonicated cell suspension used as lysate
Briefly: Human 11β-HSD1 enzyme inhibitory activity (lysate of stably expressing HEK293 cells, cortisol by competitive ELISA). It counts as biochemical. The following applies: for IC50: human 11β-HSD1, HEK293 cell lysate, 100 nmol/L cortisone, 400 μmol/L NADPH, 37° C. 1 hour, read-out: IC50(μM) HSD1. How it is done:
(§1) Human 11β-HSD1-, human 11β-HSD2-Gene Clonings and Establishment of Stably Expressing Cells
(§2) Human 11β-HSD1- and human 11β-HSD2-gene clonings were conducted using as a template a reverse transcription product of human-liver RNA and human-kidney RNA (CELL APPLICATIONS) respectively, by means of PCR cloning with reference to nucleotide sequences of Genbank Accession No. NM_00.5525 and NM 000196. The obtained PCR products of about 0.9 kbp and 1.2 kbp were subcloned into an expression vector pcDNA3.1+/Zeo (Invitrogen).
(§3) Human 11β-HSD1- and human 11β-HSD2-expressing vectors were transfected into human kidney-derived cell line, HEK293 cells, using a transfection reagent, jet PEI (Funakoshi). Selection was conducted with 400 μg/mL of zeocine (Invitrogen) to provide stably-expressing-cell clones. The stably expressing cells were suspended in buffer solution A (20 mmol/L Tris-HCl, pH 7.4, 250 mmol/L sucrose, 1 mmol/L EGTA, 1 mmol/L EDTA, 1 mmol/L MgCl2), sonicated, and then stored at −80° C.
(§4) An enzymatic reaction was conducted using a polystyrene 96-well plate. Each well was added with 1 μL of a test agent dissolved in DMSO and then diluted (0.003 to 3 mmol/L), and further added with 10 μL of cell lysate diluted to a concentration of 0.1 mg/mL to 0.4 mg/mL. Next, 90 μL of buffer solution A containing substrate (100 nmol/L cortisone) and coenzyme (400 μmol/L NADPH) was added and the mixture was incubated at 37° C. for 1 hour. The enzymatic reaction was stopped by treating at 95° C. for 3 minutes. Cortisol that was present in the reaction solution was determined by a competitive ELISA shown below.
Anti-rabbit IgG antibody (Chemi-con) diluted to 2 μg/mL with carbonate buffer solution (pH 9.6) was added in 100 μL each to a 96-well immuno plate (Nunc) and immobilized by incubating at 4° C. overnight. 50 μL of enzymatic reaction solution was put onto the plates, and further, anti-cortisol antibody (Cosmo Bio) and HRP-labeled cortisol (Cosmo Bio), diluted with buffer solution B (25 mmol/L Tris-HCl pH 7.4, 137 mmol/L NaCl, 2.68 mmol/L KCl), were added in 50 μL respectively and incubated at 4° C. overnight. After washed three times with buffer solution B containing 0.05% Tween 20, the plates were allowed to develop color by adding 100 μL of color reagent, TMB (Moss). The color reaction was stopped by 25 μL of 1 mol/L sulfuric acid and the absorbance was determined at 450 nm with a microplate reader (Molecular Device, VersaMax).
The values of human 11β-HSD1 and human 11β-HSD2 activities were subtracted from 100, and the resultant values were regarded as the respective 11β-HSD inhibition rates of example compounds. For each example compound, the value of 50% inhibitory concentration (IC50) was calculated from 11β-HSD inhibition rates at plural concentrations, for 11β-HSD1 and 11β-HSD2 activities.

The target in a further experiment is T2, human 11β-HSD2 (Homo sapiens, UniProt P80365).
T2 construct: expressed in transfected cells; sonicated cell suspension used as lysate
T2 sequence (P80365 1-405): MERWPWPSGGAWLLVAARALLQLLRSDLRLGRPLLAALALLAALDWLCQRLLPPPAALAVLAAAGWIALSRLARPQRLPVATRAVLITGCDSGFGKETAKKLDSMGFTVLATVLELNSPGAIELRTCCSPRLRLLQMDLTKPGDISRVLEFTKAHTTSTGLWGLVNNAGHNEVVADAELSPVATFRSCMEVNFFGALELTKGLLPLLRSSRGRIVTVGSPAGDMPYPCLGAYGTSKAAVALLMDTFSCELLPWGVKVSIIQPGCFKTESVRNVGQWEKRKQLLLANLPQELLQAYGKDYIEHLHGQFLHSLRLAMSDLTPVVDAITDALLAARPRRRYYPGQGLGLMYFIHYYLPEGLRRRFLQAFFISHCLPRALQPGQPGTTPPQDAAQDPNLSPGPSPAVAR
In words: Human 11β-HSD2 enzyme inhibitory activity (lysate of stably expressing HEK293 cells, cortisol by competitive ELISA). In kind it is biochemical. Conditions: human 11β-HSD2, HEK293 cell lysate, 37° C. 1 hour. The protocol: as §1, §2, §3, §4
Anti-rabbit IgG antibody (Chemi-con) diluted to 2 μg/mL with carbonate buffer solution (pH 9.6) was added in 100 μL each to a 96-well immuno plate (Nunc) and immobilized by incubating at 4° C. overnight. […] The color reaction was stopped by 25 μL of 1 mol/L sulfuric acid and the absorbance was determined at 450 nm with a microplate reader (Molecular Device, VersaMax). […]

T1 sequence (P28845 whole entry): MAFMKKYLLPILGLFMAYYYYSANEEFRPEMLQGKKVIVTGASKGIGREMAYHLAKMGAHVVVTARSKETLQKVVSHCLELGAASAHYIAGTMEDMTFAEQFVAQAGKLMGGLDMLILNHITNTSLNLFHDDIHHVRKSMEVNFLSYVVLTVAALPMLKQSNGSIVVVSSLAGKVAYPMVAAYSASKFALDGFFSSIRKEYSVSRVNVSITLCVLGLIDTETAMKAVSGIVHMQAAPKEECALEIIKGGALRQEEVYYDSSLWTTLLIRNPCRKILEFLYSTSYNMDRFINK

Regarding `O=C(COc1ccccc1C(F)(F)F)N1CCC2(CC1)C(=O)N(C1CC1)c1ccccc12` [Example 84, 1-cyclopropyl-1′-{2-(2-trifluoromethylphenoxy)acetyl}spiro(indole-3,4′-piperidine)-2-one], the IC50 on human 11β-HSD1 is 0.72 µM.

For the compound `O=C(N1CCC2(CC1)C(=O)Nc1ccccc12)C1(c2ccc(Cl)cc2)CC1` [compound A, 1′-{[1-(4-Chlorophenyl)cyclopropyl]carbonyl}spiro[indole-3, 4′-piperidin]-2(1H)-one, reference compound], on human 11β-HSD1 (compound A actually synthesized and measured by the applicant, read-out: 50% inhibitory concentration (IC50) for 11β-HSD1 activity), the pIC50 is 5.52.

Regarding `CCN1C(=O)C2(CCN(C(=O)COc3ccccc3C(F)(F)F)CC2)c2ccccc21` [Example 80, 1-ethyl-1′-{2-(2-trifluoromethylphenoxy)acetyl}spiro(indole-3,4′-piperidine)-2-one], the IC50 on human 11β-HSD1 amounted to 0.67 µM.

For `O=C(COc1ccccc1C(F)(F)F)N1CCC2(CC1)C(=O)Nc1ccccc12` [Example 1, 1′-{2-(2-trifluoromethylphenoxy)acetyl}spiro(indole-3,4′-piperidine)-2(1H)-one], the IC50 on human 11β-HSD1 turned out to be 0.033 µM.

With `O=C(COc1ccccc1[N+](=O)[O-])N1CCC2(CC1)C(=O)Nc1ccccc12` [Example 12, 1′-{2-(2-nitrophenoxy)acetyl}spiro(indole-3,4′-piperidine)-2(1H)-one], the IC50 at human 11β-HSD1 was determined as 1 µM.

For `O=C(CSc1ccccc1C(F)(F)F)N1CCC2(CC1)C(=O)Nc1ccccc12` [Example 70, 1′-{2-(2-trifluoromethylphenylthio)acetyl}spiro(indole-3,4′-piperidine)-2(1H)-one], the IC50 on human 11β-HSD1 turned out to be 0.16 µM.

For the compound `O=C(COc1ccccc1I)N1CCC2(CC1)C(=O)Nc1ccccc12` [Example 10, 1′-{2-(2-iodophenoxy)acetyl}spiro(indole-3,4′-piperdine)-2 (1H)-one], the IC50 at human 11β-HSD1 is 0.087 µM; at human 11β-HSD2, > 30 µM.

With `CCCN1C(=O)C2(CCN(C(=O)COc3ccccc3C(F)(F)F)CC2)c2ccccc21` [Example 81, 1-propyl-1′-{2-(2-trifluoromethylphenoxy)acetyl}spiro(indole-3,4′-piperidine)-2-one], the IC50 on human 11β-HSD1 was 0.43 µM.

Regarding `CN1C(=O)C2(CCN(C(=O)COc3ccccc3C(F)(F)F)CC2)c2ccccc21` [Example 76, 1-methyl-1′-{2-(2-trifluoromethylphenoxy)acetyl}spiro(indole-3,4′-piperidine)-2-one], the IC50 was 0.068 µM on human 11β-HSD1 and > 30 µM at human 11β-HSD2.

Consider `CC(C)(C)c1ccccc1OCC(=O)N1CCC2(CC1)C(=O)Nc1ccccc12` [Example 52, 1′-{2-(2-t-butylphenoxy)acetyl}spiro(indole-3,4′-piperidine)-2(1H)-one], for which the IC50 on human 11β-HSD1 was 0.73 µM.

In the case of `O=C(COc1ccccc1Br)N1CCC2(CC1)C(=O)Nc1ccccc12` [Example 49], the values for the half-inhibitory concentration (IC50) on human 11β-HSD1 and at human 11β-HSD2 were 0.41 µM and > 30 µM, respectively.

`O=C(COc1cccc(Cl)c1Cl)N1CCC2(CC1)C(=O)Nc1ccccc12` [Example 40, 1′-{2-(2,3-dichlorophenoxy)acetyl}spiro(indole-3,4′-piperidine)-2(1H)-one]: the IC50 at human 11β-HSD1 amounted to 0.96 µM.

For `Cc1ccccc1OCC(=O)N1CCC2(CC1)C(=O)Nc1ccccc12` [Example 2, 1′-{2-(2-methylphenoxy)acetyl}spiro(indole-3,4′-piperidine)-2(1H)-one], at human 11β-HSD1, the IC50 is 0.82 µM.
